# Laboratory results taken from the supplement of paper PMC10307832.
# Columns and labels:
# Assay in all cases: relative viability (nuclei count vs DMSO), 5 days (fraction); higher = more cells survive
# Selisistat + Lapatinib = compound: C1CC(C2=C(C1)C3=C(N2)C=CC(=C3)Cl)C(=O)N [Selisistat] + CS(=O)(=O)CCNCc1ccc(-c2ccc3ncnc(Nc4ccc(OCc5cccc(F)c5)c(Cl)c4)c3c2)o1 [Lapatinib] (partner 2 µM)
# Procedure, shortened: (§1)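 Nuclei were stained with Hoechst during a one-step fixation (final 0.05% Triton X-100, 1% formaldehyde, 1 ug/ml Hoechst) carried out 5 days after dosing, then counted on 4× images. The cells, lung cancer lines in 1536-well plates, had been dosed by pin tool the day after seeding with one drug alone or a fixed anchor-drug dose plus five library-drug doses (not always all listed) in √10 steps. Relative viability is the nuclei count in treated wells divided by that in vehicle wells, and each value is the median of duplicate plates.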
# Selisistat + Linsitinib = compound: C1CC(C2=C(C1)C3=C(N2)C=CC(=C3)Cl)C(=O)N [Selisistat] + C[C@]1(O)C[C@@H](c2nc(-c3ccc4ccc(-c5ccccc5)nc4c3)c3c(N)nccn32)C1 [Linsitinib] (partner 1 µM)
# Procedure, shortened: as §1
# Serdemetan + Trametinib = compound: c1ccc2c(CCNc3ccc(Nc4ccncc4)cc3)c[nH]c2c1 [Serdemetan] + CC(=O)Nc1cccc(-n2c(=O)n(C3CC3)c(=O)c3c(Nc4ccc(I)cc4F)n(C)c(=O)c(C)c32)c1 [Trametinib] (partner 0.02 µM)
# Procedure, shortened: as §1
# Serdemetan + Vorinostat = compound: c1ccc2c(CCNc3ccc(Nc4ccncc4)cc3)c[nH]c2c1 [Serdemetan] + O=C(CCCCCCC(=O)Nc1ccccc1)NO [Vorinostat] (partner 1 µM)
# Procedure, shortened: as §1
cell line,measurement,setting,value
UMC-11,relative viability,Selisistat + Lapatinib; first compound 0.4 µM,0.921
same,relative viability,Selisistat + Lapatinib; first compound 1.265 µM,0.999
same,relative viability,Selisistat + Lapatinib; first compound 4 µM,0.893
same,relative viability,Selisistat + Lapatinib; first compound 12.65 µM,0.94
same,relative viability,Selisistat + Lapatinib; first compound 40 µM,1.06
same,relative viability,Selisistat + Linsitinib; first compound 0.4 µM,0.962
same,relative viability,Selisistat + Linsitinib; first compound 1.265 µM,0.935
same,relative viability,Selisistat + Linsitinib; first compound 4 µM,1.06
same,relative viability,Selisistat + Linsitinib; first compound 12.65 µM,0.948
same,relative viability,Selisistat + Linsitinib; first compound 40 µM,1.03
same,relative viability,Serdemetan + Trametinib; first compound 0.04 µM,0.703
same,relative viability,Serdemetan + Trametinib; first compound 0.1265 µM,0.672
same,relative viability,Serdemetan + Trametinib; first compound 0.4 µM,0.619
same,relative viability,Serdemetan + Trametinib; first compound 1.265 µM,0.388
same,relative viability,Serdemetan + Trametinib; first compound 4 µM,0.656
same,relative viability,Serdemetan + Vorinostat; first compound 0.04 µM,0.412
same,relative viability,Serdemetan + Vorinostat; first compound 0.1265 µM,0.445
same,relative viability,Serdemetan + Vorinostat; first compound 0.4 µM,0.37
same,relative viability,Serdemetan + Vorinostat; first compound 1.265 µM,0.268
same,relative viability,Serdemetan + Vorinostat; first compound 4 µM,0.335
